Measured values: patent publication US20110052732A1, “MINERAL ABSORPTION ACCELERATOR AND IRON DEFICIENCY ANEMIA IMPROVER OF FOOD COMPOSITION” (FUJIFILM Corporation, priority 2008, published 2011)

System: SD rats
Assay: Mineral balance test in rats (absorption rate, internal retention rate, serum concentration)
Format: in vivo, rat
Settings: oral aqueous solution 2.0 g/day; for Absorption rate of calcium / Absorption rate of iron / Absorption rate of magnesium / Absorption rate of zinc / Internal retention rate of calcium / Internal retention rate of iron / Internal retention rate of magnesium / Internal retention rate of zinc: 14 days, then urine and feces collected for 4 days
Excerpt: SD rats (males) of 4 weeks of age after birth were preliminarily reared for 1 week and then divided into a control group and 6 sample ingestion groups, each group consisting of 6 animals, at random based on body weight. In the rats of salacinol administration group, 0.1% salacinol aqueous solution was orally administered at a dose of 2.0 g/day per unit weight of rat. In the rats of voglibose administration group, 0.4% voglibose aqueous solution was orally administered at a dose of 2.0 g/day per unit weight of rat. In the rats of acarbose administration group, 0.4% acarbose aqueous solution was orally administered at a dose of 2.0 g/day per unit weight of rat. In the rats of Salacia extract powder administration group, 1% Salacia extract powder aqueous solution was orally administered at a dose of 2.0 g/day per unit weight of rat. In the rats of mulberry extract powder administration group, 1% mulberry extract powder aqueous solution was orally administered at a dose of 2.0 g/day per unit weight of rat. In the rats of Salacia extract powder+green tea extract administration group, 1% Salacia extract powder+1% green tea extract mixed aqueous solution was orally administered at a dose of 2.0 g/day per unit weight of rat. In the rats of control group, water was orally administered at a dose of 2.0 g/day per unit weight of rat. Each rat was reared with a solid feed (CRF-1 mfd. by Oriental Yeast) for 14 days and then transferred into a cage for metabolism analysis, and urine and feces were collected for a period of 4 days to measure concentrations of iron, calcium, magnesium and zinc. Detection of minerals from feces was carried out using inductively coupled plasma emission spectrometry, and those from urine and serum using atomic absorption method. Absorption rate and internal holding rate of each mineral were calculated using the following formulae. Absorbed amount=ingested amount−discharged amount into feces Absorption rate (%)=absorbed amount÷ingested amount×100 Internally retained amount=absorbed amount−discharged amount into urine Internal retention rate (%)=internally retained amount÷ingested amount×100 Results of the absorption rate and internal retention rate of minerals and concentration of mineral in serum by the mineral balance test are respectively shown in Tables 3 to 5.

Structure (SMILES)	Absorption rate of calcium	Absorption rate of iron	Absorption rate of magnesium	Absorption rate of zinc	Internal retention rate of calcium	Internal retention rate of iron	Internal retention rate of magnesium	Internal retention rate of zinc	Concentration of calcium in serum	Concentration of iron in serum	Concentration of magnesium in serum	Concentration of zinc in serum
C[C@H]1O[C@H](O[C@H]2[C@H](O)[C@@H](O)[C@@H](O[C@H]3[C@H](O)[C@@H](O)C(O)O[C@@H]3CO)O[C@@H]2CO)[C@H](O)[C@@H](O)[C@@H]1N[C@H]1C=C(CO)[C@@H](O)[C@H](O)[C@H]1O (stereo partly drawn) [Acarbose, acarbose]	32.8%	37.5%	20.8%	29.3%	31.5%	32.8%	23.1%	18.4%	10.9 mg/dL	289.3 µg/dL	2.01 mg/dL	121.3 µg/dL
O=S(=O)([O-])O[C@@H](CO)[C@H](O)C[S@+]1C[C@@H](O)[C@H](O)[C@H]1CO [Salacinol]	33.2%	38.5%	20.5%	30.1%	32.3%	34.2%	23.6%	19.5%	11.8 mg/dL	298.6 µg/dL	2.06 mg/dL	122.7 µg/dL
OCC(CO)N[C@H]1C[C@](O)(CO)[C@@H](O)[C@H](O)[C@H]1O [Voglibose, voglibose]	32.5%	37.8%	21.2%	29.8%	32.1%	33.9%	24.0%	18.6%	10.9 mg/dL	292.5 µg/dL	2.04 mg/dL	120.2 µg/dL
